Test results from patent publication US12077503B2, “Substituted cyclic amides and their use as herbicides” (FMC CORPORATION, priority 2015, dated 2024).

Experiments:
Assay type in all cases: in vivo
[1] = tested on: ragweed (common ragweed, Ambrosia elatior); experiment: Test A preemergence; conditions: Ambrosia artemisiifolia, pre-emergence, 240 h
How it was run: (§1)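 Visual injury, scored on a 0–100 scale relative to untreated controls, was recorded about 10 d after application. Treatments were a preemergence soil spray over planted seeds or a postemergence spray on plants at the one- to two-leaf stage, 2 to 10 cm tall, all in loam soil–sand blend in the greenhouse.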

[2] = tested on: pigweed (Amaranthus retroflexus); experiment: Test A preemergence; conditions: Amaranthus retroflexus, pre-emergence, 240 h
[3] = tested on: giant foxtail (Setaria faberii); experiment: Test A preemergence; conditions: Setaria faberi, pre-emergence, 240 h
How it was run: as §1

[4] = tested on: Kochia (Kochia scoparia); experiment: Test A preemergence; conditions: Bassia scoparia, pre-emergence, 240 h
How it was run: as §1

[5] = tested on: barnyardgrass (Echinochloa crus-galli); experiment: Test A preemergence; conditions: Echinochloa crus-galli, pre-emergence, 240 h
How it was run: as §1

[6] = tested on: ryegrass, Italian (Italian ryegrass, Lolium multiflorum); experiment: Test A preemergence; conditions: Lolium multiflorum, pre-emergence, 240 h
How it was run: as §1

[7] = tested on: ragweed (common ragweed, Ambrosia elatior); experiment: Test A postemergence; conditions: Ambrosia artemisiifolia, post-emergence, 240 h, 125 g ai/ha, postemergence, visual injury rating after approximately 10 d; read-out: Ragweed plant response rating (0 to 100 scale, 0 no effect, 100 complete control)
How it was run: as §1

[8] = tested on: pigweed (Amaranthus retroflexus); experiment: Test A postemergence; conditions: Amaranthus retroflexus, post-emergence, 240 h, 125 g ai/ha, postemergence, visual injury rating after approximately 10 d; read-out: Pigweed plant response rating (0 to 100 scale, 0 no effect, 100 complete control)
How it was run: as §1

[9] = tested on: giant foxtail (Setaria faberii); experiment: Test A postemergence; conditions: Setaria faberi, post-emergence, 240 h, 125 g ai/ha, postemergence, visual injury rating after approximately 10 d; read-out: Foxtail, Giant plant response rating (0 to 100 scale, 0 no effect, 100 complete control)
How it was run: as §1

[10] = tested on: wheat (Triticum aestivum); experiment: Test A postemergence; conditions: Triticum aestivum, post-emergence, 240 h, 125 g ai/ha, postemergence, visual injury rating after approximately 10 d; read-out: Wheat plant response rating (0 to 100 scale, 0 no effect, 100 complete control)
How it was run: as §1

[11] = tested on: corn (Zea mays); experiment: Test A postemergence; conditions: Zea mays, post-emergence, 240 h, 125 g ai/ha, postemergence, visual injury rating after approximately 10 d; read-out: Corn plant response rating (0 to 100 scale, 0 no effect, 100 complete control)
How it was run: as §1

[12] = tested on: blackgrass (Alopecurus myosuroides); experiment: Test A postemergence; conditions: Alopecurus myosuroides, post-emergence, 240 h, 125 g ai/ha, postemergence, visual injury rating after approximately 10 d; read-out: Blackgrass plant response rating (0 to 100 scale, 0 no effect, 100 complete control)
How it was run: as §1

[13] = tested on: Kochia (Kochia scoparia); experiment: Test A postemergence; conditions: Bassia scoparia, post-emergence, 240 h, 125 g ai/ha, postemergence, visual injury rating after approximately 10 d; read-out: Kochia plant response rating (0 to 100 scale, 0 no effect, 100 complete control)
How it was run: as §1

[14] = tested on: barnyardgrass (Echinochloa crus-galli); experiment: Test A postemergence; conditions: Echinochloa crus-galli, post-emergence, 240 h, 125 g ai/ha, postemergence, visual injury rating after approximately 10 d; read-out: Barnyardgrass plant response rating (0 to 100 scale, 0 no effect, 100 complete control)
How it was run: as §1

[15] = tested on: Galium (catchweed bedstraw, Galium aparine); experiment: Test A postemergence; conditions: Galium, post-emergence, 240 h, 125 g ai/ha, postemergence, visual injury rating after approximately 10 d; read-out: Galium plant response rating (0 to 100 scale, 0 no effect, 100 complete control)
How it was run: as §1

**Q.** What does the source list for CN1C[C@H](c2cccc(C3CC3)c2)[C@@H](C(=O)Nc2ccccc2F)C1=O [Compound 815]?
**A.** pest or weed control at 125 g/ha ([1]; 125 g ai/ha, preemergence, visual rating after approx. 10 d, 0 to 100 scale where 0 is no effect and 100 is complete control, read-out: Plant response rating, Ragweed): 0%; pest or weed control at 500 g/ha ([1]; 500 g ai/ha, Preemergence, visual injury vs untreated controls after approximately 10 d, read-out: Ragweed plant response rating (0 to 100 scale where 0 is no effect and 100 is complete control)): 0%; pest or weed control at 125 g/ha ([2]; 125 g ai/ha, preemergence, visual rating after approx. 10 d, 0 to 100 scale where 0 is no effect and 100 is complete control, read-out: Plant response rating, Pigweed): 30%; pest or weed control at 500 g/ha ([2]; 500 g ai/ha, Preemergence, visual injury vs untreated controls after approximately 10 d, read-out: Pigweed plant response rating (0 to 100 scale where 0 is no effect and 100 is complete control)): 50%; pest or weed control at 125 g/ha ([3]; 125 g ai/ha, preemergence, visual rating after approx. 10 d, 0 to 100 scale where 0 is no effect and 100 is complete control, read-out: Plant response rating, Foxtail, Giant): 90%; pest or weed control at 500 g/ha ([3]; 500 g ai/ha, Preemergence, visual injury vs untreated controls after approximately 10 d, read-out: Foxtail, Giant plant response rating (0 to 100 scale where 0 is no effect and 100 is complete control)): 100%; pest or weed control at 125 g/ha ([4]; 125 g ai/ha, preemergence, visual rating after approx. 10 d, 0 to 100 scale where 0 is no effect and 100 is complete control, read-out: Plant response rating, Kochia): 70%; pest or weed control at 500 g/ha ([4]; 500 g ai/ha, Preemergence, visual injury vs untreated controls after approximately 10 d, read-out: Kochia plant response rating (0 to 100 scale where 0 is no effect and 100 is complete control)): 80%; pest or weed control at 125 g/ha ([5]; 125 g ai/ha, preemergence, visual rating after approx. 10 d, 0 to 100 scale where 0 is no effect and 100 is complete control, read-out: Plant response rating, Barnyardgrass): 90%; pest or weed control at 500 g/ha ([5]; 500 g ai/ha, Preemergence, visual injury vs untreated controls after approximately 10 d, read-out: Barnyardgrass plant response rating (0 to 100 scale where 0 is no effect and 100 is complete control)): 100%; pest or weed control at 125 g/ha ([6]; 125 g ai/ha, preemergence, visual rating after approx. 10 d, 0 to 100 scale where 0 is no effect and 100 is complete control, read-out: Plant response rating, Ryegrass, Italian): 80%; pest or weed control at 500 g/ha ([6]; 500 g ai/ha, Preemergence, visual injury vs untreated controls after approximately 10 d, read-out: Ryegrass, Italian plant response rating (0 to 100 scale where 0 is no effect and 100 is complete control)): 80%; pest or weed control at 125 g/ha [7]: 0%; pest or weed control at 125 g/ha [8]: 20%; pest or weed control at 125 g/ha [9]: 90%; plant injury at 125 g/ha [10]: 30%; plant injury at 125 g/ha [11]: 50%; pest or weed control at 125 g/ha [12]: 50%; pest or weed control at 125 g/ha [13]: 40%; pest or weed control at 125 g/ha [14]: 100%; pest or weed control at 125 g/ha [15]: 50%
